Results from PubChem BioAssay (NCI).
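Grown in 96-well plates, cells were treated for 48 hours with each compound at five concentrations. Insufficient inhibition: endpoint recorded as highest concentration tested. GI50 is the concentration that inhibits growth by half. TGI denotes the concentration required for complete inhibition of growth.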

Legend:
Assay in all cases: NCI-60 cell line screen, 48 h
[1] = test system: A498 renal
[2] = test system: MOLT-4 leukemia
[3] = test system: SK-MEL-2 melanoma
[4] = test system: SF-268 CNS
[5] = test system: UO-31 renal
[6] = test system: OVCAR-5 ovarian
[7] = test system: A549 NSCLC
[8] = test system: SW-620 colon
[9] = test system: HCC-2998 colon
[10] = test system: CCRF-CEM leukemia
[11] = test system: IGROV1 ovarian
[12] = test system: NCI-H460 lung
[13] = test system: SN12C renal
[14] = test system: SR leukemia
[15] = test system: NCI-H522 lung
[16] = test system: TK-10 renal
[17] = test system: NCI-H23 lung
[18] = test system: PC-3 prostate
[19] = test system: MDA-MB-231 breast
[20] = test system: BT-549 breast
[21] = test system: KM12 colon
[22] = test system: 786-0 renal
[23] = test system: OVCAR-8 ovarian
[24] = test system: RPMI-8226 leukemia
[25] = test system: K-562 leukemia
[26] = test system: MDA-MB-435
[27] = test system: HL-60(TB) leukemia
[28] = test system: NCI-H226 lung
[29] = test system: HS 578T breast
[30] = test system: UACC-257 melanoma
[31] = test system: SK-MEL-5 melanoma
[32] = test system: HCT-15 colon
[33] = test system: NCI/ADR-RES ovarian
[34] = test system: UACC-62 melanoma
[35] = test system: OVCAR-3 ovarian
[36] = test system: EKVX NSCLC
[37] = test system: DU-145 prostate
[38] = test system: CAKI-1 renal
[39] = test system: SF-295 CNS
[40] = test system: SF-539 CNS
[41] = test system: M14 melanoma
[42] = test system: HOP-92 NSCLC
[43] = test system: MCF7 breast

## CC(=O)NS(=O)(=O)c1ccc(-n2nc(-c3ccc(Cl)cc3)cc2-c2cc(O)ccc2O)cc1
[1]
  GI50: 24.8 µM
  TGI: 93.4 µM
[2]
  GI50: 87.3 µM
  TGI: > 100 µM
[3]
  GI50: > 100 µM
  TGI: > 100 µM
[4]
  GI50: 52.1 µM
  TGI: > 100 µM
[5]
  GI50: 20.5 µM
  TGI: 45.6 µM
[6]
  GI50: 20.1 µM
  TGI: 40 µM
[7]
  GI50: 34.9 µM
  TGI: > 100 µM
[8]
  GI50: 75 µM
  TGI: > 100 µM
[9]
  GI50: 20.7 µM
  TGI: 39.7 µM
[10]
  GI50: 5.55 µM
  TGI: > 100 µM
[11]
  GI50: 92.8 µM
  TGI: > 100 µM
[12]
  GI50: > 100 µM
  TGI: > 100 µM
[13]
  GI50: 19.6 µM
  TGI: 40.8 µM
[14]
  GI50: 39.5 µM
  TGI: > 100 µM
[15]
  GI50: 37 µM
  TGI: > 100 µM
[16]
  GI50: 31.7 µM
  TGI: 92.6 µM
[17]
  GI50: 18.6 µM
  TGI: 32.6 µM
[18]
  GI50: 13.8 µM
  TGI: 30 µM
[19]
  GI50: 10.9 µM
  TGI: 22.8 µM
[20]
  GI50: > 100 µM
  TGI: > 100 µM
[21]
  GI50: 41.1 µM
  TGI: > 100 µM
[22]
  GI50: 16.1 µM
  TGI: 29.6 µM
[23]
  GI50: 33 µM
  TGI: > 100 µM
[24]
  GI50: 21.1 µM
  TGI: 59.8 µM
[25]
  GI50: 29.9 µM
  TGI: 96 µM
[26]
  GI50: 31.6 µM
  TGI: > 100 µM
[27]
  GI50: 40.8 µM
  TGI: > 100 µM
[28]
  GI50: 14.4 µM
  TGI: 36.2 µM
[29]
  GI50: 62.2 µM
  TGI: > 100 µM
[30]
  GI50: 15.9 µM
  TGI: 45.7 µM
[31]
  GI50: 36.4 µM
  TGI: > 100 µM
[32]
  GI50: 13.6 µM
  TGI: 26.5 µM
[33]
  GI50: 27.2 µM
  TGI: 70 µM
[34]
  GI50: 14.5 µM
  TGI: 27.6 µM
[35]
  GI50: 32.6 µM
  TGI: 84.9 µM
[36]
  GI50: 46.1 µM
  TGI: > 100 µM
[37]
  GI50: 21.5 µM
  TGI: 47.5 µM
[38]
  GI50: 28.1 µM
  TGI: 56.9 µM
[39]
  GI50: 30.9 µM
  TGI: > 100 µM
[40]
  GI50: 32.4 µM
  TGI: 81.6 µM
[41]
  GI50: 14 µM
  TGI: 27 µM
[42]
  GI50: 17.1 µM
  TGI: 48.4 µM
[43]
  GI50: > 100 µM
  TGI: > 100 µM
